pIC50: −log10 of the molar value. “And” between values parts separate entries of the source, which are not always exact repeats. Equal entries are not always repeated. Where two headings read alike, the source gives them in different places.
How the values were obtained:
[1] = system: PC3 cells; assay: Bone metastasis after intracardiac injection of PC3 cells in male nude mice; type: in vivo, mouse; details: for Outgrowth of macroscopic bone lesions (bioluminescent imaging): data not shown
Protocol: (§1) For localized tumor growth assay, cells were resuspended in 100 μl PBS with Matrigel in 1:1 ratio and subcutaneously injected into both rear flanks. The volume of the s.c. xenograft was calculated as V=L×W^2/2, where L and W stand for tumor length and width, respectively. For experimental metastasis assays, cells were resuspended in 100 μl 1×PBS and intracardially injected into the left ventricle with a 26 G tuberculin syringe. For bone colonization, RM1 cells were resuspended 100 μl 1×PBS and injected into the intra-femoral artery. Metastatic burden was detected through non-invasive bioluminescence imaging of experimental animals using an IVIS Spectrum.
(§2) To investigate the effect of drug treatment, compounds or antibodies were delivered twice every week or every three days through i.p. injection except BLZ945, which was delivered orally. Bioluminescence signal was measured using the ROI tool in Living Image 4.4 software (PerkinElmer).
(§3) For bioluminescent imaging, mice were anesthetized and injected with 1.5 mg of D-luciferin retro-orbitally at the indicated times. Animals were imaged in an IVIS® 100 chamber within 5 min after D-luciferin injection, and data were recorded using LIVING IMAGE® software (Xenogen). To measure bone colonization after intracardiac injection, photon flux was calculated by using the ROI tool in the LIVING IMAGE® software. Bone metastases were further confirmed by X-Ray imaging. Mice were anesthetized with ketamine (100 mg/kg) and xylazine (10 mg/kg), placed on digital X ray Film (Scan X) and exposed at 25 kV for 15 s using a Faxitron instrument (Model MX-20; Faxitron Corp. Buffalo, Ill.).
(§4) The tissue sections were deparaffinized with EZPrep buffer (Ventana Medical Systems), antigen retrieval was performed with CC1 buffer (Ventana Medical Systems). Sections were blocked for 30 minutes with Background Buster solution (Innovex), followed by avidin-biotin blocking for 8 minutes (Ventana Medical Systems) (except for slides stained with CD4 and NKp46 antibodies). Sections were incubated with anti-RNF2, anti-BMI1, anti-Ki67, anti-Cleaved Caspase 3, anti-CD11b, anti-CD68, anti-CD8, anti-CD31, anti-B220, anti-FoxP3, anti-CD4, or anti-NKp46 for 5 hours, followed by 60 minutes incubation with biotinylated horse anti-rabbit IgG at 1:200 dilution (for Ki67, Cleaved Caspase 3, CD11b and CD8) or biotinylated goat anti-rat IgG at 1:200 dilution (for CD31, B220 and FoxP3) or biotinylated horse anti-goat IgG at 1:200 dilution (for CD4 and NKp46). The detection was performed with DAB detection kit (Ventana Medical Systems) according to manufacturer instruction. Slides were counterstained with hematoxylin and coverslipped with PERMOUNT™ (Fisher Scientific).

[2] = system: PC3 cells; assay: Tumor sphere assay, PC3 cells; type: cell-based, human; details: for pIC50: Homo sapiens, PC-3, read-out: Inhibition of sphere formation ability normalized to control groups, IC50
Protocol: (§5) Single cell suspensions of LNCaP, DU145, PC3, PC3M or RM1 cells (1,000 cells/ml) were plated on ultra-low attachment plates and cultured in serum-free PrEGM (Lonza) supplemented with 1:50 B27, 20 ng/ml bFGF and 40 ng/ml EGF for 10 days. Tumor spheres were visualized under phase contrast microscope, photographed, and counted. For serial passage, tumor spheres were collected using 70-μm cell strainers and dissociated with ACCUTASE® for 30 min at 37° C. to obtain single-cell suspensions.

[3] = molecular target: T1, PRC1 (Homo sapiens, UniProt Q99496); assay: Inhibition of H2Aub (monoubiquitylation of histone H2A) in PC3 cells; type: cell-based
T1 construct: PC3 cells were exposed to drugs for the indicated hours; endogenous in cells; host or cells: PC3 cells
T1 sequence (Q99496 2-336 limits assumed): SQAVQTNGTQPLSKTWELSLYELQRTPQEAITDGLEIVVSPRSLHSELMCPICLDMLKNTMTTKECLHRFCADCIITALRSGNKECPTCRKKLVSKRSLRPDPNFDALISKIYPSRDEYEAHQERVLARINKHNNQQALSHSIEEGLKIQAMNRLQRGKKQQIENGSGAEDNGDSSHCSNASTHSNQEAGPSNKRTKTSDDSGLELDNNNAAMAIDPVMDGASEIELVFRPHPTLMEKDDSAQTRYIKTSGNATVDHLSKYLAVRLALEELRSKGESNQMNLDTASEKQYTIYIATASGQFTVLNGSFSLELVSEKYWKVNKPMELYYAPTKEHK
Protocol: (§6) For immunoblotting, cells were washed with PBS and lysed in RIPA buffer (50 mM Tris-HCl pH 7.4, 150 mM NaCl, 1 mM EDTA, 1% Triton X-100, 1% sodium deoxycholate, and 0.1% SDS) supplemented with protease inhibitors (Calbiochem) and phosphatase inhibitors (PhosSTOP, Roche Life Science). Protein concentrations were measured by using the DC Protein Assay. Total RNA was extracted using the RNeasy Mini kit coupled with RNase-free DNase set (Qiagen) and reverse transcribed with SuperScript III First-Strand Synthesis SuperMix (Invitrogen). cDNA corresponding to approximately 10 ng of starting RNA was used for one reaction. Q-PCR was performed with Taqman Gene Expression Assay (Applied Biosystems). All quantifications were normalized to endogenous GAPDH.
PC3 cells were exposed to drugs for the indicated hours, then harvested using […] EDTA in PBS, and washed once with cold PBS. Nuclear extracts were prepared and histones were extracted using 0.4N sulfuric acid. H2A or ubH2A was measured using the indicated antibodies.

[4] = system: PC3 cells; assay: Gene expression changes and pathway analysis compared with RNF2 silencing; type: cell-based, human; details: compared with 2 and RNF2 silencing; data not shown
Protocol: Data were analyzed in Partek. Total RNAs were isolated from PC3 cells. Libraries were prepared suing the standard methodology from Illumina. Generated libraries were run on a HiSeq2500 system. Raw reads were quality-checked and subsequently mapped to the human genome (hg19) using Tophat2 (2.2.4) using default settings (Langmead and Salzberg, 2012). Differential gene expression was analyzed using the DESeq2 (1.8.1) package in R using default settings (Love et al., 2014). Gene set enrichment analysis (GSEA) (Subramanian et al., 2005) was performed on a pre-ranked gene list that generated based on the gene expression changes between the RNF2 knockdown and control cells. […] Heatmap analysis was performed to show the gene expression patterns between the RNF2 knockdown and control repeats, using heatmap3 R package with ward2 as distance function. Gene expressions in the heatmap were transformed in logarithm scale and normalized accordingly.

[5] = system: PC3 cells; assay: Cell growth under standard culture conditions; type: cell-based, human; details: concentrations up to 1 μM, data not shown
Protocol: Control and RNF2-silenced PC3 cells were plated at 1×10^3 per well in 96 well plates for 24 hours. After 24 hours, cells were incubated in 0.5 mg/ml MTT (Invitrogen) for 2 h at 37° C. MTT crystals were dissolved in DMSO and absorbance was measured in a plate reader at 540 nm.
The candidate library was provided by the Organic Synthesis Core Facility from MSKCC. The testing concentration of candidate compounds on PC3 cells was 1 μM. RNF2 target gene expression change was used as a readout for the first round screen. Cell viability, tumor sphere formation assay and histone modification change were then used to further confirm the activity of the candidate compound.

[6] = system: RM1 cells; assay: Tumor sphere assay, RM1 cells; type: cell-based, mouse; details: data not shown
Protocol: as §5

[7] = system: RNF2 target genes (CCL2, CXCL1, LGR5, NTS, ATF3); assay: Quantitative RT-PCR of RNF2 target genes in PC3 or RM1 cells; type: cell-based; details: 0.5 and 1.0 μM; compared with RNF2 silencing
Protocol: as §6

[8] = molecular target: T2, RNF2-PRC1 complex (Homo sapiens, UniProt Q99496); assay: In vitro ubiquitination assay (cell-free system); type: biochemical; details: data not shown
T2 construct: RNF2-PRC1 complex was immunoprecipitated from one 15 cm plate of PC3 cells; endogenous in cells; host or cells: PC3 cells (immunoprecipitate)
T2 sequence (Q99496 2-336 limits assumed): T1 sequence (Q99496 2-336 limits assumed)
Protocol: RNF2-PRC1 complex was immunoprecipitated from one 15 cm plate of PC3 cells. After extensive washing, the complex was pre-incubated with drugs at 4° C. for 30 minutes. UBCH5c, E1, were from Boston Biochem. Reactions were performed in 30 μl of ubiquitilation buffer (50 mM Tris, pH 7.5, 2.5 mM MgCl2, 0.5 mM DTT) containing ubiquitin-activating enzyme 100 ng E1, 200 ng UBCH5c, 10 μg ubiquitin, 0.2 mM ATP, 1 μg H2A, and the indicated PNF2-PRC1 complex. After incubated at 37° C. for 60 min, the reactions were then stopped by the addition of Laemmli sample buffer, and proteins were resolved by SDS-PAGE and immunoblotted using H2A antibody.

[9] = system: Pten^pc−/−Smad4^pc−/− cells; assay: Multi-organ metastasis in FVB/NJ mice inoculated intracardially with Pten pc-/- Smad4 pc-/- cells; type: in vivo, mouse; details: for Numbers of TAMs and Tregs in bone lesions: on-treatment staining of bone lesions
Protocol: as §1, §2, §3, §4
For iNOS/CD68 or Arg1/CD68 staining, first, slides were incubated with anti-iNOS or anti-Arg1 for 5 hours, followed by 60 minutes incubation with biotinylated goat anti-rabbit IgG at 1:200 dilution. The detection was performed with Streptavidin-HRP D (part of DABMap kit, Ventana Medical Systems), followed by incubation with Tyramide Alexa Fluor 488 prepared according to manufacturer instruction with predetermined dilutions. Next, sections were incubated with anti-CD68 for 5 hours, followed by 60 minutes incubation with biotinylated goat anti-rabbit IgG at 1:200 dilution. The detection was performed with Streptavidin-HRP D (part of DABMap kit, Ventana Medical Systems), followed by incubation with Tyramide Alexa CF 594 prepared according to manufacturer instruction with predetermined dilutions. After staining slides were counterstained with DAPI for 10 min and coverslipped with MOWIOL®.
At the end point in vivo experiment, blood and bone marrow cells were collected from each mouse and treated with Red Blood Cell lysis buffer for 5 minutes. Cells were then washed once with RPMI supplemented 2% FBS, stained with indicated antibodies and analyzed by FACS.

[10] = system: RM1 cells; assay: Metastasis in C57BL/6 mice injected with RM1 cells; type: in vivo, mouse
Protocol: as §1, §2
For bioluminescent imaging, mice were anesthetized and injected with 1.5 mg of D-luciferin retro-orbitally at the indicated times. Animals were imaged in an IVIS® 100 chamber within 5 min after D-luciferin injection, and data were recorded using LIVING IMAGE® software (Xenogen). To measure bone colonization after intracardiac injection, photon flux was calculated by using the ROI tool in the LIVING IMAGE® software. […]

[11] = PC3 cells, titration experiments
[12] = PC3 cells, read-out: Inhibition of H2Aub normalized to control groups, IC50
[13] = bone metastatic sites, Pten/Smad4 and RM1 models

`CNC(=O)c1cc(Oc2ccc3nc(N[C@@H]4CCCC[C@H]4O)sc3c2)ccn1` [BLZ945, reference compound] was tested, and the “Outgrowth of macroscopic bone lesions (bioluminescent imaging)” value [1] was “effectively inhibit the outgrowth of macroscopic bone lesions”.

`Nc1ccc(CCN2C(=O)c3c(F)c(F)c(F)c(F)c3C2=O)cc1` [Compound 1] was tested, and the pIC50 ([2]; PC3 cells) was 6.89, the “Inhibition of sphere formation, fold more efficient as compared to 2” value [2, 11] was over 7.5 fold and the “Inhibition of H2AUb, fold more efficient as compared to 2” value [3, 11] was over 7.5 fold. For the same molecule, the pIC50 [3, 12] was 6.33, the “Inhibition of PRC1 activity relative to 3 (PTC209)” value ([3]; data not shown) was “more effectively as compared to 3” and the pIC50 ([3]; inhibitor of RNF2, read-out: Apparent IC50 in cells and on target) was ~6.33 and ~6.30. For the same molecule, the “Gene expression changes in cancer-relevant pathways” value [4] was “changes larger than those caused by 2 and by RNF2 silencing”, the “Formation of bone metastases” value ([1]; 25 mg/kg, treatment from day 7, 2×/week) was “prevented formation of bone metastases” and the “Expansion of bone macrometastases” value ([1]; 25 mg/kg, treatment from day 21, 2 weeks of treatment) was “significant suppression of their expansion”. The “Nuclear H2AUb levels in bone sections (IHC)” value ([1]; bone sections of treated mice) was “substantially decreases”, the “Secretion of CCL2 in the tumor microenvironment (IHC)” value ([1]; bone sections of treated mice) was “substantially decreases” and the “Inhibition of cell growth” value [5] was “did not inhibit cell growth”. The “Inhibition of tumor sphere” value [6] was “inhibited tumor sphere to a similar extent”, the “Downregulation or upregulation of key PRC1 targets (RT-qPCR)” value [7] was “as effectively as silencing of RNF2” and the “Inhibition of RNF2-mediated H2AUb” value [8] was “inhibited RNF2-mediated H2AUb in a dose-dependent fashion”. For the same molecule, the “Multi-organ metastasis (bioluminescent imaging)” value ([9]; 1 at 10 mg/kg, DCIT = anti-CTLA4 + anti-PD-1) was “only inhibited this process”, the “Number of M1-like macrophages” value [9, 13] was “increases the number of M1-like macrophages” and the “Percentage of M2-like TAMs (CD68 and Arg1/iNOS double staining)” value [9, 13] was “dramatically decreases the percentage of M2-like TAMs”. For the same molecule, the “Numbers of TAMs and Tregs in bone lesions” value ([9]; Pten/Smad4 and RM1 models) was “reduces the numbers of TAMs and Tregs”, the “Numbers of MDSCs and TAMs (FACS)” value ([9]; peripheral blood and bone marrow) was “reduces the numbers of MDSCs and TAMs” and the “Outgrowth of bone, brain and liver metastases” value ([10]; C57BL/6 mice, data not shown) was “inhibited the outgrowth of bone, brain and liver metastases”. For the same molecule, the “FACS analysis of leukocytes from peripheral blood” value ([10]; treated mice) was “significant decrease of macrophages and increase of T cells and NK cells”.

`O=C1C(=Cc2cccnc2)C(=O)c2ccccc21` [Compound 2, 2-(pyridin-3-ylmethylene)-1H-indene-1,3(2H)-dione, reference compound] was tested, and the pIC50 ([2]; PC3 cells) was 5.98, the “Concentration at which growth of oncospheres was inhibited” value ([2]; inhibited only at this concentration) was 25 µM and the “Concentration at which PRC1 activity was inhibited, assessed by monoubiquitylation of histone H2A” value [3] was 25 µM. The pIC50 [3, 12] was 5.45, the “Number of M1-like macrophages” value [9, 13] was “increases the number of M1-like antigen presentation-competent macrophages” and the “Numbers of TAMs and Tregs in bone lesions” value ([9]; Pten/Smad4 and RM1 models) was “suppresses the recruitment of total TAMs”.

For `Cc1ccc2c(c1)C1(CCN(CCc3nc(-c4ccccc4)oc3C)CC1)OC(=O)N2` [RS504393, reference compound], the “Outgrowth of macroscopic bone lesions (bioluminescent imaging)” value [1] was “effectively inhibit the outgrowth of macroscopic bone lesions”.

Source: US20220257601A1, “INHIBITORS OF PRC1 FOR TREATMENT OF CANCER” (Board of Regents, The University of Texas System, priority 2019, published 2022)
